Reference: patent US20220313620A1, “COMPOSITION FOR PREVENTING AND TREATING TAUOPATHIES” (SERVICIO ANDALUZ DE SALUD, priority 2019, published 2022)

System: Pyruvate Kinase Liver/RBC (Pklr)
Assay: Liver pyruvate kinase gene expression (qPCR) after acute oral gavage
Type: in vivo
Details: oral 100 mg/kg, adult male Wistar rats, FIG. 2D
Experimental: After 18 hours of fasting, D-Pinitol dissolved in water was administered acutely by gavage (100 mg/kg in a first study, and 500 mg/kg in a subsequent study). After administration, the animals were sacrificed in groups at different times (being time 0 the administration of D-Pinitol). For the first study (100 mg/kg), groups of animals were sacrificed at times: 10, 20, 30, 60, 120, 240 and 360 minutes after administration; for the second study (500 mg/kg), animals were sacrificed at times: 60, 120 and 240 minutes after administration. As a control group, a group was administered only with water (by gavage). […]
Total RNA was extracted from tissue portions of liver (100-300 mg) using the Trizol® method according to the manufacturer's instructions (GIBCO BRL Life Technologies). […] Total RNA was quantified using a spectrophotometer (Nanodrop 1000 Spectrophotometer, Thermo Scientific) to ensure A260/280 ratios of 1.8 to 2.0. […]
Real-time qPCR was performed following the criteria of the MIQE guidelines (Bustin, S. A. et al. The MIQE guidelines: minimum information for publication of quantitative real-time PCR experiments. Clin Chem. 55,611-622 (2009)). […] For all reference and target gene studies, two independent biologic samples of each experimental condition were evaluated in technical duplicates. […]

Q: With `COC1[C@@H](O)[C@@H](O)C(O)[C@H](O)[C@H]1O` (stereo partly drawn) [DPIN, (1S,2S,4S,5R)-6-methoxycyclohexane-1,2,3,4,5-pentol] as the compound, how does the “expression of Pyruvate Kinase” value read?
A: Inhibition
